The assay deals with T1, HMG-CoA reductase (Rattus norvegicus, UniProt P51639).
T1 construct: the supernatant was ultracentrifuged at 100,000×g for 60 minutes to obtain microsomal precipitates; from tissue; host or cells: rat liver microsomes
T1 sequence (P51639 1-887): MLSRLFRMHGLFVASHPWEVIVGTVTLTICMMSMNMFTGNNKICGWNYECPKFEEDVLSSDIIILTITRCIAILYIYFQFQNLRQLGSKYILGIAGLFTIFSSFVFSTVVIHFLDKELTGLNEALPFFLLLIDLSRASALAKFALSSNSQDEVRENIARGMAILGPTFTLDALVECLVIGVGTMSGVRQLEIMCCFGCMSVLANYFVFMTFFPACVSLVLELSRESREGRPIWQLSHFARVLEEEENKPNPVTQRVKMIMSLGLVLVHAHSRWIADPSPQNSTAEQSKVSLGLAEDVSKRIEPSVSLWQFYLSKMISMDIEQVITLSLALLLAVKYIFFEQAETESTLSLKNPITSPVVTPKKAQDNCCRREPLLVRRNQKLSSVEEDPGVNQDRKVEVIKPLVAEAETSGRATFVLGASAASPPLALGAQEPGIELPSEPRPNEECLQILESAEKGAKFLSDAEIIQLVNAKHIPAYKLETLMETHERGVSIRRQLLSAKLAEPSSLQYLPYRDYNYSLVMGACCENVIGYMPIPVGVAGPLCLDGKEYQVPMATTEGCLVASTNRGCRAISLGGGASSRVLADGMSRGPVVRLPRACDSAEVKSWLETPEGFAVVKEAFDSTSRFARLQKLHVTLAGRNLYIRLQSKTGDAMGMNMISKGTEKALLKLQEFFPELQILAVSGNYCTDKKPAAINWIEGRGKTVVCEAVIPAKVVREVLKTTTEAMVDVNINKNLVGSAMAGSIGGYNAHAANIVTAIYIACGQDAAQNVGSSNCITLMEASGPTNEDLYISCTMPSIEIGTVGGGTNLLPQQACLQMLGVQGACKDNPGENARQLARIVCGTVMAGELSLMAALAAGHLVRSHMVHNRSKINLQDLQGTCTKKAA
Briefly: HMG-CoA reductase activity assay, liver microsomes of the fed rats. In kind it is biochemical. The settings on record: liver microsomes of rats fed 0.1% in 1% cholesterol diet; Control 0. The protocol:
In order to determine the activity of HMG-CoA reductase, Hulcher's method was employed after some modification (see J. Lipid Res., 14, 625-641(1973)). In this method, the concentration of the coenzyme-A (CoA-SH), which is produced when HMG-CoA is reduced to a mevalonate salt by the action of HMG-CoA reductase, is determined by spectroscopy and the activity of HMG-CoA reductase is calculated therefrom.
3 g of liver tissue taken from each group of rats of Example 2 was washed successively with 100 ml of a cold saline (0.15 M NaCl) and 100 ml of a cold buffer solution A (0.1 M triethanolamine, HCl/0.2 M EDTA/2 mM dithiothreitol (DTT)). The cold buffer solution A was added to the liver tissue in an amount of 2 ml per 1 g of the liver tissue and the mixture was homogenized with a homogenizer. The homogenate was centrifuged at 15,000×g for 15 minutes, and then, the supernatant was ultracentrifuged at 100,000×g for 60 minutes to obtain microsomal precipitates. The precipitates thus obtained was washed with a cold buffer solution A and kept in a 1.5 ml tube at -70° C.
The reaction substrates used in HMG-CoA reductase activity assay were as follows: i) buffer solution B: 0.1 M triethanolamine, HCl/0.02 M EDTA (pH 7.4), ii) HMG-CoA solution: 150 μmoles/culture medium, and iii) NADPH solution: 2 μmoles/culture medium.
The suspension (microsome) was mixed with the reaction substrate and the mixture was placed in a centrifugation tube and reacted at 37° C. for 30 minutes. […]
Then, the reactant was mixed with 20 μl of DTNB buffer solution (3 mM DTNB/0.1 M triethanolamine/0.2 M EDTA, pH 7.4) and the absorbance of the mixture was determined at 412 nm to calculate the amount of CoA-SH (activity of HMG-CoA reductase).
The extent of inhibition of HMG-CoA reductase activity by cinnamic acid derivatives was calculated based on the above result.
For orientation: Liver microsomes are a subcellular fraction often used to study metabolism.
With `O=C(O)CCc1ccc(O)c(O)c1` [3,4-dihydroxyhydrocinnamic acid], the “Inhibition of HMG-CoA reductase activity” value was 70%.
In the case of `O=C(O)/C=C/c1ccc(O)cc1` [4-Hydroxycinnamic acid, 4-hydroxycinnamic acid], the “Inhibition of HMG-CoA reductase activity” value is given as 31%.
For `O=C(O)/C=C/c1ccc(O)c(O)c1` [3,4-dihydroxycinnamic acid] the value was 44%.

The record behind these values is patent publication US6313171A, “Method for preventing or treating elevated blood lipid level-related diseases by administering cinnamic acid derivatives” (Korea Research Institute of Bioscience & Biotechnology, priority 1998, dated 2001).
